Measured values from patent US8586608B2, “Quinazoline derivatives and pharmaceutical compositions containing them” (Boehringer Ingelheim Pharma GmbH & Co. KG, priority 2000, dated 2013).

Biological target: T1, human EGF-receptor kinase (Homo sapiens, UniProt P00533)
T1 construct: GST; made in house; host or cells: Sf9 insect cells (baculovirus)
Assay: Inhibition of human EGF-receptor kinase (ELISA, bio-pEY substrate)
Assay type: biochemical
Settings: cytoplasmic tyrosine kinase domain (Met664-Ala1186) as GST fusion protein; substrate pEY (4:1)/bio-pEY; 30 minutes at ambient temperature
Protocol: To do this, the protein was expressed in Sf9 insect cells as a GST fusion protein using the Baculovirus expression system.
The enzyme activity was measured in the presence or absence of the test compounds in serial dilutions. The polymer pEY (4:1) produced by SIGMA was used as the substrate. Biotinylated pEY (bio-pEY) was added as the tracer substrate. Every 100 μl of reaction solution contained 10 μl of the inhibitor in 50% DMSO, 20 μl of the substrate solution (200 mM HEPES pH 7.4, 50 mM magnesium acetate, 2.5 mg/ml poly(EY), 5 μg/ml bio-pEY) and 20 μl of enzyme preparation. The enzyme reaction was started by the addition of 50 μl of a 100 μM ATP solution in 10 mM magnesium chloride. The dilution of the enzyme preparation was adjusted so that the incorporation of phosphate into the bio-pEY was linear in terms of time and quantity of enzyme. The enzyme preparation was diluted in 20 mM HEPES pH 7.4, 1 mM EDTA, 130 mM common salt, 0.05% Triton X-100, 1 mM DTT and 10% glycerol.
The enzyme assays were carried out at ambient temperature over a period of 30 minutes and were ended by the addition of 50 μl of a stopping solution (250 mM EDTA in 20 mM HEPES pH 7.4). 100 μl were placed on a streptavidin-coated microtiter plate and incubated for 60 minutes at ambient temperature. Then the plate was washed with 200 μl of a washing solution (50 mM Tris, 0.05% Tween 20). After the addition of 100 μl of a HRPO-labelled anti-PY antibody (PY20H Anti-PTyr:HRP produced by Transduction Laboratories, 250 ng/ml), it was incubated for 60 minutes. Then the microtiter plate was washed three times with 200 μl of washing solution. The samples were then combined with 100 μl of a TMB-peroxidase solution (A:B=1:1, Kirkegaard Perry Laboratories). After 10 minutes, the reaction was stopped. The extinction was measured at OD450nm with an ELISA reader. All data points were measured three times.
The data were matched by means of an iterative calculation using an analytical program for sigmoidal curves (Graph Pad Prism Version 3.0) with variable Hill pitch.

T1 sequence (P00533 688-1210): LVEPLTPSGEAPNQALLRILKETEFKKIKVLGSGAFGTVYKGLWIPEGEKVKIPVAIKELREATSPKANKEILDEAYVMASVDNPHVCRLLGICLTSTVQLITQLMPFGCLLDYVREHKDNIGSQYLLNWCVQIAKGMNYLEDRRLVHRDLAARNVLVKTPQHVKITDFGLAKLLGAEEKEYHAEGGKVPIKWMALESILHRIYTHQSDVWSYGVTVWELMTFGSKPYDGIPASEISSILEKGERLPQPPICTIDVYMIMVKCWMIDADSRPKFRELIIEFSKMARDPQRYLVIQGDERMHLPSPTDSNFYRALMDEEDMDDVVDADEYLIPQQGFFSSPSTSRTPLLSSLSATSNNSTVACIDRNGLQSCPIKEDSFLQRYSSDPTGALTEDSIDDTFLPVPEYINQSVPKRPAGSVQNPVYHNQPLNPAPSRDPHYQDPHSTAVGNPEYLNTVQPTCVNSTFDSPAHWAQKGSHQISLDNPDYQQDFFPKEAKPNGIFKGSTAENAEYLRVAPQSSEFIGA

Compound	IC50
COCCN(C)CC=CC(=O)Nc1cc2c(Nc3ccc(F)c(Cl)c3)ncnc2cc1OCC1CC1 [Example 1, [(3-chloro-4-fluorophenyl)amino]-6-({4-[N-(2-methoxyethyl)-N-methylamino]-1-oxo-2-buten-1-yl}amino)-7-cyclopropylmethoxyquinazoline]	0.7 nM
CN(CC=CC(=O)Nc1cc2c(Nc3ccc(F)c(Cl)c3)ncnc2cc1OC1CCCC1)C1CC1 [1 (22), 4-[(3-chloro-4-fluorophenyl)amino]-6-{[4-(N-cyclopropyl-N-methylamino)-1-oxo-2-buten-1-yl]amino}-7-cyclopentyloxyquinazoline]	1 nM
COCCN(C)CC=CC(=O)Nc1cc2c(N[C@H](C)c3ccccc3)ncnc2cc1OCC1CC1 [1 (5), 4-[(R)-(1-phenylethyl)amino]-6-({4-[N-(2-methoxyethyl)-N-methylamino]-1-oxo-2-buten-1-yl}amino)-7-cyclopropylmethoxyquinazoline]	3 nM
CC(C)N(C)CC=CC(=O)Nc1cc2c(Nc3ccc(F)c(Cl)c3)ncnc2cc1O[C@H]1CCOC1 [1 (34), 4-[(3-chloro-4-fluorophenyl)amino]-6-{[4-(N-isopropyl-N-methylamino)-1-oxo-2-buten-1-yl]amino}-7-[(s)-(tetrahydrofuran-3-yl)oxy]quinazoline]	0.4 nM
CCN(C)CC=CC(=O)Nc1cc2c(Nc3ccc(F)c(Cl)c3)ncnc2cc1O[C@H]1CCOC1 [1 (33), 4-[(3-chloro-4-fluorophenyl)amino]-6-{[4-(N-ethyl-N-methylamino)-1-oxo-2-buten-1-yl]amino}-7-[(s)-(tetrahydrofuran-3-yl)oxy]quinazoline]	0.5 nM
COCCN(CC=CC(=O)Nc1cc2c(N[C@H](C)c3ccccc3)ncnc2cc1OCC1CC1)CCOC [1 (3), 4-[(R)-(1-phenylethyl)amino]-6-{[4-(N,N-bis(2-methoxyethyl)amino)-1-oxo-2-buten-1-yl]amino}-7-cyclopropylmethoxyquinazoline]	4 nM
CN(C)CC=CC(=O)Nc1cc2c(Nc3ccc(F)c(Cl)c3)ncnc2cc1OC[C@@H]1CCCO1 [1 (32), 4-[(3-chloro-4-fluorophenyl)amino]-6-{[4-(N,N-dimethylamino)-1-oxo-2-buten-1-yl]amino}-7-[(s)-(tetrahydrofuran-2-yl)methoxy]quinazoline]	0.3 nM
CN(C)CC=CC(=O)Nc1cc2c(Nc3ccc(F)c(Cl)c3)ncnc2cc1OC1CCCC1 [1 (2), 4-[(3-chloro-4-fluorophenyl)amino]-6-{[4-(N,N-dimethylamino)-1-oxo-2-buten-1-yl]amino}-7-cyclopentyloxyquinazoline]	0.6 nM

Test system: not given
Assay: not given
Settings: not given

Compound	melting point
CN(C)CC=CC(=O)Nc1cc2c(Nc3ccc(F)c(Cl)c3)ncnc2cc1OC[C@H]1CCCO1 [Example 1 (31), 4-[(3-chloro-4-fluorophenyl)amino]-6-{[4-(N,N-dimethylamino)-1-oxo-2-buten-1-yl]amino}-7-[(R)-(tetrahydrofuran-2-yl)methoxy]quinazoline]	110 to 112 °C
O=C(C=CCN1CCOCC1)Nc1cc2c(Nc3ccc(F)c(Cl)c3)ncnc2cc1O[C@H]1CCOC1 [Example 1 (35), 4-[(3-chloro-4-fluorophenyl)amino]-6-{[4-(morpholin-4-yl)-1-oxo-2-buten-1-yl]amino}-7-[(s)-(tetrahydrofuran-3-yl)oxy]quinazoline]	184 to 185 °C
CN(CC=CC(=O)Nc1cc2c(Nc3ccc(F)c(Cl)c3)ncnc2cc1OC1CCCC1)C1CC1 [1 (22), 4-[(3-chloro-4-fluorophenyl)amino]-6-{[4-(N-cyclopropyl-N-methylamino)-1-oxo-2-buten-1-yl]amino}-7-cyclopentyloxyquinazoline]	140 °C
CN(CC=CC(=O)Nc1cc2c(Nc3ccc(F)c(Cl)c3)ncnc2cc1OC1CCCC1)C[C@H]1CCCO1 [Example 1 (26), 4-[(3-chloro-4-fluorophenyl)amino]-6-[(4-{(R)—N-[(tetrahydrofuran-2-yl)methyl]-N-methylamino}-1-oxo-2-buten-1-yl)amino]-7-cyclopentyloxyquinazoline]	117 to 121 °C
CCN(C)CC=CC(=O)Nc1cc2c(Nc3ccc(F)c(Cl)c3)ncnc2cc1O[C@H]1CCOC1 [1 (33), 4-[(3-chloro-4-fluorophenyl)amino]-6-{[4-(N-ethyl-N-methylamino)-1-oxo-2-buten-1-yl]amino}-7-[(s)-(tetrahydrofuran-3-yl)oxy]quinazoline]	154 to 157 °C
CN(CC=CC(=O)Nc1cc2c(Nc3ccc(F)c(Cl)c3)ncnc2cc1OCC1CC1)CC1CCOCC1 [Example 1 (24), 4-[(3-chloro-4-fluorophenyl)amino]-6-[(4-{N-[(tetrahydropyran-4-yl)methyl]-N-methylamino}-1-oxo-2-buten-1-yl)amino]-7-cyclopropylmethoxyquinazoline]	141 °C
O=C(C=CCN1CCOCC1)Nc1cc2c(Nc3ccc(F)c(Cl)c3)ncnc2cc1OCC1CCOCC1 [Example 1 (29), 4-[(3-chloro-4-fluorophenyl)amino]-6-{[4-(morpholin-4-yl)-1-oxo-2-buten-1-yl]amino}-7-[(tetrahydropyran-4-yl)methoxy]quinazoline]	174 °C
CN(CC=CC(=O)Nc1cc2c(Nc3ccc(F)c(Cl)c3)ncnc2cc1OCC1CC1)C[C@H]1CCCO1 [Example 1 (19), 4-[(3-chloro-4-fluorophenyl)amino]-6-[(4-{(R)—N-[(tetrahydrofuran-2-yl)methyl]-N-methylamino}-1-oxo-2-buten-1-yl)amino]-7-cyclopropylmethoxyquinazoline]	149 to 153 °C
COCCN(CC=CC(=O)Nc1cc2c(Nc3ccc(F)c(Cl)c3)ncnc2cc1OCC1CCOCC1)CCOC [Example 1 (30), 4-[(3-chloro-4-fluorophenyl)amino]-6-({4-[N,N-bis(2-methoxyethyl)amino]-1-oxo-2-buten-1-yl}amino)-7-[(tetrahydropyran-4-yl)methoxy]quinazoline]	100 to 102 °C
